Laboratory results reported in PMC6059979 (European journal of medicinal chemistry, 2018).
Peptide text beside a SMILES is read from it. * marks the point of attachment. Palmitoyl = CCCCCCCCCCCCCCCC(=O)*

Tests used:
Type in all cases: cell-based
[1] = tested on: Vancomycin Resistant Enterococcus faecalis (E. faecalis, ATCC 700802); conditions: ATCC 700802, 18 h
[2] = tested on: Klebsiella pneumoniae (K. pneumoniae, ATCC 13383); conditions: ATCC 13383, 18 h
[3] = tested on: Escherichia coli (E. coli, JM109); conditions: JM109, 18 h
[4] = tested on: Methicillin Resistant Staphylococcus aureus (MRSA, ATCC 33591); conditions: ATCC 33591, 18 h
[5] = tested on: Methicillin Resistant Staphylococcus epidermidis (MRSE, RP62A); conditions: Methicillin Resistant (, RP62A, 18 h)

- MIC E. faecalis [1]: >25 µg/mL
- MIC K. pneumoniae [2]: >25 µg/mL
- MIC E. coli [3]: >25 µg/mL
- MIC MRSA [4]: >25 µg/mL
- MIC MRSE [5]: >25 µg/mL
Compound: CCCCCCCCCCCCCCCC(=O)N[C@@H](CCCCN)C(=O)N[C@@H](Cc1ccccc1)C(=O)N[C@@H](CCCCN)C(N)=O [C16-K-F-K] (Palmitoyl-Lys-Phe-Lys-NH2)
